Converted amounts (≈) assume the structure as drawn. Like-named read-outs stand apart in the source and are kept apart here.
What was measured:
MSSA = experiment: MIC, broth microdilution, clinical isolates: MSSA; type: cell-based; details: Staphylococcus aureus, 26 clinical isolates
Method: (§1) To assess the MICs for antibiotic susceptibility, Gram-positive bacteria isolated from human clinical specimens were obtained from several general hospitals in Seoul, Korea, during 2002–2018. Staphylococcus aureus Giorgio and Streptococcus pneumoniae ATCC49619 were used to test in vivo efficacies against […], in mice.
(§2) The MICs of the antimicrobial agents were determined by a twofold microdilution broth method, as described by the Clinical and Laboratory Standards Institute. Briefly, test organisms were grown on Mueller–Hinton agar (MHA, BD Difco, Sparks, MD, USA) plates, subcultured into cation-adjusted Mueller–Hinton broth (CAMHB, BD Difco, Sparks, MD, USA), and incubated for 18 h at 35 °C. For S. pneumoniae culture, 5% sheep blood (Hanil Comed, Seongnam, Korea) was added. The cultured bacteria were diluted using phosphate-buffered saline (PBS) to achieve a bacterial cell density of approximately 5 × 10^6 CFU/mL. All test organisms were loaded into 96-well plates containing serial dilutions of the antimicrobial agents to achieve a concentration of 5 × 10^4 CFU/well. The plates were incubated at 35 °C for 18–20 h and examined for bacterial growth.

MRSA = experiment: MIC, broth microdilution, clinical isolates: MRSA; type: cell-based, Staphylococcus aureus; details: Staphylococcus aureus, MRSA, 42 clinical isolates
Method: as §1, §2

[1] = tested on: CNS (coagulase-negative staphylococci); experiment: MIC, broth microdilution, clinical isolates: CNS; type: cell-based; details: 31 clinical isolates
Method: as §1, §2

VRE = experiment: MIC, broth microdilution, clinical isolates: VRE; type: cell-based, vancomycin-resistant Enterococcus
Method: as §1, §2

S. pneumoniae = experiment: MIC, broth microdilution, clinical isolates: S. pneumoniae; type: cell-based, Streptococcus pneumoniae
Method: as §1, §2

[2] = tested on: Vancomycin-sensitive E. faecalis; experiment: MIC, broth microdilution, clinical isolates: vancomycin-sensitive E. faecalis; type: cell-based, Enterococcus faecalis; details: Enterococcus faecalis, 32 clinical isolates
Method: as §1, §2

[3] = tested on: Vancomycin-sensitive E. faecium; experiment: MIC, broth microdilution, clinical isolates: vancomycin-sensitive E. faecium; type: cell-based, Enterococcus faecium; details: Enterococcus faecium, 32 clinical isolates
Method: as §1, §2

S. aureus Giorgio [4] = experiment: MIC against S. aureus Giorgio; type: cell-based, Staphylococcus aureus; details: Staphylococcus aureus; read-out: MIC
Method: as §2

S. pneumoniae ATCC49619 [5] = experiment: MIC against S. pneumoniae ATCC49619; type: cell-based; details: Streptococcus pneumoniae, ATCC49619; read-out: MIC
Method: as §2

MRSA CCARM 3167 [6] = experiment: MIC against MRSA CCARM 3167; type: cell-based; details: Staphylococcus aureus; read-out: MIC
Method: as §2

VRE 3 [7] = experiment: MIC against VRE 3; type: cell-based, vancomycin-resistant Enterococcus; details: Enterococcus, read-out: MIC
Method: as §2

S. aureus Giorgio [8] = experiment: Time-kill assay, S. aureus Giorgio; type: cell-based, Staphylococcus aureus; details: 2× and 4× MIC, 24 h
Method: (§3) Time-kill analysis was performed by the NCCLS M26-A method. The test organisms (S. aureus Giorgio, S. pneumoniae ATCC49619, MRSA CCARM 3167, and VRE 3) incubated in CAMHB for 18 h at 35 °C were diluted to 10^5 CFU/mL with fresh CAMHB, and the diluted cultures were preincubated for 2 h. For S. pneumoniae culture, 5% sheep blood (Hanil Comed, Seongnam, Korea) was added. […] Culture aliquots (0.1 mL) were removed after 0, 2, 4, 6 and 24 h of incubation, and serial 10-fold dilutions were prepared in saline as needed. The numbers of viable cells were determined on drug-free MHA plates after 20 h of incubation. A compound was considered bactericidal if the original inoculum was reduced by 3 log CFU/mL (99.9%) at each concentration or was considered bacteriostatic if the inoculum was reduced by 0–3 log CFU/mL.

S. pneumoniae ATCC49619 [9] = experiment: Time-kill assay, S. pneumoniae ATCC49619; type: cell-based, Streptococcus pneumoniae; details: 2× and 4× MIC, 24 h
Method: as §3

MRSA CCARM 3167 [10] = experiment: Time-kill assay, MRSA CCARM 3167; type: cell-based, Staphylococcus aureus; details: 2× and 4× MIC, 24 h
Method: as §3

VRE 3 [11] = experiment: Time-kill assay, VRE 3; type: cell-based, vancomycin-resistant Enterococcus; details: 2× and 4× MIC, 24 h
Method: as §3

S. pneumoniae ATCC49619 [12] = experiment: Neutropenic mouse respiratory tract infection model; type: in vivo, female ICR mice
Method: For the respiratory tract infection model, neutropenic mice were anesthetized and intranasally inoculated with a 50 μL suspension of S. pneumoniae ATCC49619 (4.4 × 10^8 CFU/mL). For the thigh infection model, the neutropenic mice were administered an intramuscular injection of a 100 μL suspension of S. aureus Giorgio (1 × 10^6 CFU/mL) into both thighs. For both models, four mice were included in each group. At 2 h after infection, two mice were sacrificed, and the infected thighs or lungs (n = 4) were excised to determine the initial bacterial levels. […] At 24 h after infection, the mice were sacrificed by cervical dislocation; their thighs or lungs were removed, homogenized, serially diluted with saline, and plated onto MHA to count the number of bacteria remaining. The number of viable bacterial cells (CFU) in the thighs or lungs of vehicle- and drug-treated mice was determined.

[13] = cited from earlier work

In the case of `CC(=O)NC[C@H]1CN(c2ccc(N3CCOCC3)c(F)c2)C(=O)O1` [Linezolid], the MIC50 (MSSA; read-out: MIC50) is reported as 2 µg/mL (≈ 5.93 µM), the MIC90 (MSSA; read-out: MIC90) is reported as 2 µg/mL (≈ 5.93 µM) and the MIC50 (MRSA; read-out: MIC50) is reported as 2 µg/mL (≈ 5.93 µM). It also gave an MIC90 (MRSA; read-out: MIC90) of 4 µg/mL (≈ 11.9 µM), an MIC50 ([1]; read-out: MIC50) of 2 µg/mL (≈ 5.93 µM) and an MIC90 ([1]; read-out: MIC90) of 4 µg/mL (≈ 11.9 µM). The MIC90 (VRE; 46 clinical isolates) was 4 µg/mL (≈ 11.9 µM), the MIC50 (VRE; Enterococcus, VRE, 46 clinical isolates, read-out: MIC50) was 2 µg/mL (≈ 5.93 µM) and the MIC90 (VRE; Enterococcus, 46 VRE isolates, read-out: MIC90) was 4 µg/mL (≈ 11.9 µM). For the same molecule, the MIC90 (S. pneumoniae; 27 clinical isolates) was 4 µg/mL (≈ 11.9 µM), the MIC90 (S. pneumoniae; Streptococcus pneumoniae, 27 S. pneumoniae isolates, read-out: MIC90) was 4 µg/mL (≈ 11.9 µM) and the MIC50 (S. pneumoniae; Streptococcus pneumoniae, 27 clinical isolates, read-out: MIC50) was 2 µg/mL (≈ 5.93 µM). The MIC50 ([2]; read-out: MIC50) was 2 µg/mL (≈ 5.93 µM), the MIC90 ([2]; read-out: MIC90) was 4 µg/mL (≈ 11.9 µM) and the MIC50 ([3]; read-out: MIC50) was 2 µg/mL (≈ 5.93 µM). It also gave an MIC90 ([3]; read-out: MIC90) of 4 µg/mL (≈ 11.9 µM), an MIC (S. aureus Giorgio [4]) of 2 µg/mL (≈ 5.93 µM) and an MIC (S. pneumoniae ATCC49619 [5]) of 2 µg/mL (≈ 5.93 µM). The MIC (MRSA CCARM 3167 [6]) was 1 µg/mL (≈ 2.96 µM), the MIC (VRE 3 [7]) was 2 µg/mL (≈ 5.93 µM) and the time-kill activity (S. aureus Giorgio [8]) was “bacteriostatic (considered bacteriostatic if the inoculum was reduced by 0–3 log CFU/mL)”. For the same molecule, the time-kill activity (S. pneumoniae ATCC49619 [9]) was “bacteriostatic (considered bacteriostatic if the inoculum was reduced by 0–3 log CFU/mL)”, the time-kill activity (MRSA CCARM 3167 [10]) was “bacteriostatic (considered bacteriostatic if the inoculum was reduced by 0–3 log CFU/mL)” and the time-kill activity (VRE 3 [11]) was “bacteriostatic (considered bacteriostatic if the inoculum was reduced by 0–3 log CFU/mL)”. The “in vivo effect (bacteriostatic or bactericidal)” value (S. pneumoniae ATCC49619 [12]; 4 mg/kg bid s.c.) was “bacteriostatic”, the “in vivo effect (bacteriostatic or bactericidal)” value (S. pneumoniae ATCC49619 [12]; 20 mg/kg bid s.c.) was “bactericidal” and the “reduction of the starting bacterial burden compared to the 2-h control group” value (S. pneumoniae ATCC49619 [12]; second trial, 20 mg/kg bid) was 0.75 log10 CFU/lung. For the same molecule, the “bound to plasma proteins” value [13] was 18%.

Reference: article PMC9311539, “Antibacterial Activity against Clinical Isolates and In Vivo Efficacy of Coralmycins” (Antibiotics, 2022)
